In patent US20090054392A1, “NAPHTHYLPYRIMIDINE, NAPHTHYLPYRAZINE AND NAPHTHYLPYRIDAZINE ANALOGS AND THEIR USE AS AGONISTS OF THE WNT-BETA-CATENIN CELLULAR MESSAGING SYSTEM” (Wyeth, priority 2007, published 2009):

System: Dkk1-LRP5-TCF-Luciferase
Experiment: Functional Dkk1-LRP5-TCF-Luciferase Assay in U2OS Cells
Details: for fold induction at 2 µM / fold induction at 20 µM: Homo sapiens, U2OS; for fold induction at 2 µM: read-out: B = TCF ACTIVITY/DMSO CONTROL Fold induction @ 2.0 uM, 2.0 uM compound; for fold induction at 20 µM: read-out: C = TCF ACTIVITY/DMSO CONTROL Fold induction @ 20.0 uM, 20.0 uM compound; for A = MAX FOLD Induction/DMSO CONTROL: maximum fold induction over DMSO control

`CC(C)(C)OC(=O)N1CCN(C[C@@H]2CCN(c3nccc(-c4ccc5ccccc5c4)n3)C2)CC1` [tert-butyl 4-({(3S)-1-[4-(2-naphthyl)pyrimidin-2-yl]pyrrolidin-3-yl}methyl)piperazine-1-carboxylate] showed a fold induction at 2 µM of 1.16 and a fold induction at 20 µM of 0.85.

`CC(C)(C)OC(=O)N1CCC(CNc2nccc(-c3ccc4ccccc4c3)n2)CC1` [tert-butyl 4-({[4-(2-naphthyl)pyrimidin-2-yl]amino}methyl)piperidine-1-carboxylate] showed a fold induction at 2 µM of 0.93 and a fold induction at 20 µM of 1.18.

`CC(C)(C)OC(=O)N1CCN(c2nccc(-c3ccc4ccccc4c3)n2)CC1` [tert-butyl 4-[4-(2-naphthyl)pyrimidin-2-yl]piperazine-1-carboxylate] showed a fold induction at 2 µM of 0.98 and a fold induction at 20 µM of 1.94.

Molecule `CC(C)(C)OC(=O)N1CCC(Nc2nccc(-c3ccc4ccccc4c3)n2)CC1` [tert-butyl 4-{[4-(2-naphthyl)pyrimidin-2-yl]amino}piperidine-1-carboxylate] has a fold induction at 2 µM of 1 and a fold induction at 20 µM of 1.41.

`CN(c1nccc(-c2ccc3ccccc3c2)n1)C1CCN(C(=O)OC(C)(C)C)CC1` [tert-butyl 4-{methyl[4-(2-naphthyl)pyrimidin-2-yl]amino}piperidine-1-carboxylate] was tested, and the fold induction at 2 µM was 0.98 and the fold induction at 20 µM was 1.92.

For `CC(NC(=O)OC(C)(C)C)C1CCN(c2nccc(-c3ccc4ccccc4c3)n2)CC1` (centres unmarked) [tert-butyl (1-{1-[4-(2-naphthyl)pyrimidin-2-yl]piperidin-4-yl}ethyl)carbamate], the fold induction at 20 µM was 0.81.

`CC(C)(C)OC(=O)NC1CCCC(Nc2nccc(-c3ccc4ccccc4c3)n2)C1` (centres unmarked) [tert-butyl (3-{[4-(2-naphthyl)pyrimidin-2-yl]amino}cyclohexyl)carbamate] was tested, and the fold induction at 2 µM was 1.07 and the fold induction at 20 µM was 0.3.

With `CC(C)(C)OC(=O)N1CC[C@H](CNc2nccc(-c3ccc4ccccc4c3)n2)C1` [tert-butyl (3R)-3-({[4-(2-naphthyl)pyrimidin-2-yl]amino}methyl)pyrrolidine-1-carboxylate] the fold induction at 2 µM was 1.83.

For `CC(C)(C)OC(=O)N1CC[C@@H](Nc2nccc(-c3ccc4ccccc4c3)n2)C1` [tert-butyl (3R)-3-{[4-(2-naphthyl)pyrimidin-2-yl]amino}pyrrolidine-1-carboxylate], the fold induction at 2 µM was 2.38, the fold induction at 20 µM was 0.01 and the “A = MAX FOLD Induction/DMSO CONTROL” value was 0.800 fold.

Molecule `CC(C)(C)OC(=O)N1CC[C@@H](CNc2nccc(-c3ccc4ccccc4c3)n2)C1` [tert-butyl (3S)-3-({[4-(2-naphthyl)pyrimidin-2-yl]amino}methyl)pyrrolidine-1-carboxylate] has a fold induction at 20 µM of 0.01.

In the case of `CC(C)(C)OC(=O)N1CC[C@H](Nc2nccc(-c3ccc4ccccc4c3)n2)C1` [tert-butyl (3S)-3-{[4-(2-naphthyl)pyrimidin-2-yl]amino}pyrrolidine-1-carboxylate], the fold induction at 2 µM is reported as 2.11 and the “A = MAX FOLD Induction/DMSO CONTROL” value is reported as 1.270 fold.

`CC(C)(C)OC(=O)N[C@@H](CO)C1CCN(c2nccc(-c3ccc4ccccc4c3)n2)CC1` [tert-butyl ((1R)-2-hydroxy-1-{1-[4-(2-naphthyl)pyrimidin-2-yl]piperidin-4-yl}ethyl)carbamate] gave a fold induction at 2 µM of 1.13 and a fold induction at 20 µM of 0.35.

`CC(C)(C)OC(=O)N[C@H](C1CCN(c2nccc(-c3ccc4ccccc4c3)n2)CC1)C(C)(C)O` [tert-butyl ((1R)-2-hydroxy-2-methyl-1-{1-[4-(2-naphthyl)pyrimidin-2-yl]piperidin-4-yl}propyl)carbamate] showed a fold induction at 2 µM of 1.79.

Work on `C[C@H](NC(=O)OC(C)(C)C)C1CCN(c2nccc(-c3ccc4ccccc4c3)n2)CC1` [tert-butyl ((1S)-1-{1-[4-(2-naphthyl)pyrimidin-2-yl]piperidin-4-yl}ethyl)carbamate] yielded a fold induction at 20 µM of 1.08.

Molecule `CC(C)(C)OC(=O)N[C@H](CO)C1CCN(c2nccc(-c3ccc4ccccc4c3)n2)CC1` [tert-butyl ((1S)-2-hydroxy-1-{1-[4-(2-naphthyl)pyrimidin-2-yl]piperidin-4-yl}ethyl)carbamate] has a fold induction at 2 µM of 1.22 and a fold induction at 20 µM of 0.44.
